The source of these data is patent publication US10646600B2, “HER2 polypeptides useful for imaging and monitoring tumors and cancers” (GE HEALTHCARE LIMITED, priority 2013, dated 2020).

“Also recorded” adds a separate entry of the source.

Assay [1] relates to HER2. The settings on record: report by Smith-Jones and co-workers (36); cited from earlier work.
The next assay deals with SKOV-3 xenografts. The experiment in a line: PET-CT imaging and kinetic modeling, SKOV-3 xenografts. The class given is in vivo, mice. The procedure:
[…] […] To investigate response to HSP90 inhibition, SKOV-3 xenograft-bearing mice were treated with 50 mg/kg NVP-AUY922 or equivalent volume of vehicle (˜5 μL/g body weight; 10% DMSO and 5% Tween-20 in PBS) q.d. i.p. for three days. 24 h after the last treatment, animals were used for PET imaging.
Mice were anesthetized through isoflurane inhalation and scanned on a dedicated small animal PET-CT scanner (Siemens Multimodality Inveon, Erlangen, Germany). Low dose CT scans were first acquired (80 kVp, 0.5 mA, 220 degree rotation, 600 ms per degree exposure time, 80 μm reconstruction pixel size) for PET attenuation correction and to obtain an anatomical reference. PET images were acquired following a bolus i.v. injection of approximately 3.7 MBq [^18F]GE-226 in the tail vein. Dynamic emission scans were acquired in list mode format over 60 minutes. The acquired data were sorted into 0.5-mm sinogram bins and 19 time frames for image reconstruction by filtered back projection (4×15 seconds and 4×60 seconds followed by 11×300 seconds). The Siemens Inveon Research Workplace software was used for visualization of radiotracer uptake. 30 to 60-minute cumulative images of the dynamic data were employed to define 3-dimensional (3D) regions of interest (ROI). Arterial input function was estimated by drawing ROIs over the center of the heart cavity using 0.25 to 2 minutes of cumulative images. The count densities were averaged for all ROIs at each time point to obtain time versus radioactivity curves (TAC). Tumor TACs were normalized to injected dose measured by a VDC-304 dose calibrator (Veenstra Instruments, Joure, Netherlands) and normalized uptake was expressed as percentage injected dose per mL tissue (NUV; % ID/mL). Normalized uptake of radiotracer at 60 minutes (NUV60) was used for comparisons. For qualitative image visualization, cumulative images of the dynamic data (30 to 60 min) were also iteratively reconstructed (OSEM3D).
Kinetic analysis of PET data was performed applying a standard two-tissue irreversible compartmental model to fit each tumor TAC with the corresponding image-derived plasma TAC as input function (IF) to estimate K1 (mL/cm^3/min), k2, (1/min) and k3 (1/min) and the blood vascular component Vb (mL blood/mL tissue; unitless). The irreversible uptake rate Ki (mL/cm^3/min) was computed as K1×k3/(k2+k3). To estimate the kinetic parameters the measured tumor TAC (tTAC) was modeled as tTAC(t)=(1−Vb)h(t)⊗IF(t)+VbIF(t) with h(t) indicating the unknown tissue impulse function and ⊗ the convolution operator. The parameter vector p=[K1, k2, k3, Vb] was estimated with the standard Weighted Non-Linear Least Squares (WNLLS) by minimizing the Weighted Residual Sum of Squares (WRSS) function

Assay [2] relates to HER2. As to the kind of experiment: HER2 expression in SKOV-3 tumors after NVP-AUY922. The assay is classed as in vivo, mice. The settings on record: 3 doses of 50 mg/kg NVP-AUY922 versus vehicle. The procedure:
For blocking studies, SKOV-3 xenograft bearing mice were administered 500 μg (˜25 mg/kg) cold [^19F]GE-226[SEQ ID NO 1] intravenously (i.v.) through the tail vain 20 minutes before administration of radiotracer. […] To investigate response to HSP90 inhibition, SKOV-3 xenograft-bearing mice were treated with 50 mg/kg NVP-AUY922 or equivalent volume of vehicle (˜5 μL/g body weight; 10% DMSO and 5% Tween-20 in PBS) q.d. i.p. for three days. 24 h after the last treatment, animals were used for PET imaging.
Excised and snap frozen tumor tissue samples were homogenized in RIPA lysis buffer (Sigma-Aldrich) with the PreCellys 24 homogenizer and CK14 beads-containing tubes (two cycles of 25 seconds at 6500 rpm). HER2 expression was determined by ELISA (Calbiochem, Darmstadt, Germany, c-ErbB2/c-Neu Rapid Format ELISA Ki, Cat. Nr: QIA10-1EA) according to manufacturer's instructions.

In assay [3] the test system is HER2. As to the kind of experiment: Western blot of HER2 protein expression in drug-treated SKOV-3 cells. The class given is cell-based, human. To be noted: NVP-AUY922 for 24 h, compared to untreated controls. The procedure:
For all uptake studies in response to drug treatment, 2.5×10^5 SKOV-3 cells were seeded in complete medium 48 h prior to uptake experiments. […] Cells were lysed in RIPA buffer containing protease and phosphatase inhibitors (from Sigma-Aldrich). Equal amounts of protein (20 μg) were resolved on 4-15% mini-protean TGX gels (Biorad, Hercules, Calif.) and transferred to PVDF membranes (Trans-Blot Turbo Transfer Packs, Biorad). Membranes were blocked for 1 h in 5% milk in Tris-buffered saline containing 0.1% v/v tween (TBST, Cell Signaling, Danvers, Mass.) and incubated with antibodies against HER2 (Cell Signal, Cat. Nr: 2165 for visualization of p95HER2 and full-length HER2 bands and Cat. Nr: 4290 for blots where only full-length HER2 is shown), EGFR (Cell Signal, Cat. Nr: 4267) or (3-actin (Abcam, Cambridge, United Kingdom, Cat. Nr: ab6276) overnight at 4° C. Secondary HRP-conjugated mouse and rabbit antibodies (Santa Cruz Biotechnology, Dallas, Tex.) were applied for one h at room temperature. Signals were visualized using Amersham ECL™ Western Blotting Detection Reagent (GE Healthcare) and Amersham Hyper-film (GE Healthcare).

A further assay relates to SKOV-3 cells. The experiment in a line: In vitro uptake assay in SKOV-3 cells (blocking, siRNA, drug treatment, specific activity). The assay is classed as cell-based, human. To be noted: NVP-AUY922 for 24 h. The procedure: For siRNA-mediated HER2 knockdown, SKOV-3 cells were transfected with 25 nM scramble control (SCR; Dharmacon, Lafayette, Colo., ON-TARGETplus Non-targeting Pool, Cat. Nr: D-001810-10-05) or HER2-targeting siRNA (Invitrogen ERBB2 Silencer® Select Validated siRNA; Cat. Nr: 4457298) by reverse wet transfection with Lipofectamine RNAiMAX (Invitrogen) according to manufacturer's instructions. 3×10^5 cells were seeded in 12-well plates 48 h prior to uptake experiment. Target knockdown was verified by western blotting on cells that were transfected in parallel.
For all uptake studies in response to drug treatment, 2.5×10^5 SKOV-3 cells were seeded in complete medium 48 h prior to uptake experiments.
For baseline uptake in HER2 positive or negative lineages, 3×10^5 cells were seeded in complete media in 12-well plates (Corning, Tewksbury Mass.) and allowed to recover overnight. Cells were washed twice with serum-free medium and pulsed with 370 KBq in 500 μL serum-free medium for one h. For blocking studies, cells were co-incubated with tracer and 0.5 mg/mL cold unlabeled [^19F]GE-226[SEQ ID NO 1].
Cells were washed with PBS, trypsinized, neutralized with complete medium and centrifuged. The pellet was washed three times with PBS and lysed in 120 μL RIPA buffer (Sigma-Aldrich). The radioactivity of 100 μL lysate was counted on a Packard Cobra II gamma counter (Perkin Elmer). Radioactivity was normalized to applied radioactivity and protein content, which was determined for each sample by BCA assay (Pierce, Rockford, Ill.).

A further assay deals with NCI-N87 tumors. As to the kind of experiment: Fluorescent GE-226 localization versus DAKO HercepTest, NCI-N87 tumors. The class given is in vivo, mice. To be noted: 15 mg/kg i.v., tumors excised two h post injection. The procedure:
(§1) The bilateral A431/NCI-N87 model was established by s.c. injection of A431 (1×10^7 cells) and NCI-N87 cells (2×10^6 cells) in 100 μL PBS mixed 1:1 with Matrigel™ in the lower flanks of 4-6 week old male CD-1 nude mice (Charles River Laboratories, Wilmington, Mass.). Tumor volumes were monitored frequently as described above and when they reached 50-100 mm^3 (approximately 3-4 weeks), mice were administered a mixture of Hoechst (˜20 mg/kg) and fluorescein-conjugated-GE226[SEQ ID NO 1] (˜15 mg/kg) in 100 μL PBS i.v. through the tail vein. The tumors were excised 120 minutes post injection, immediately fixed in formalin and embedded in paraffin. Sections were sliced and stored in the dark at −80° C. Immunofluorescent images were acquired at 400× magnification. Adjacent tumor sections were immunohistochemically stained with HercepTest™.
(§2) HER2 protein expression in excised tumors was assessed using the HercepTest™ (Dako, Ely, United Kingdom, Cat. Nr: K5204) according to manufacturer's instructions.
(§3) To examine cellular localization, GE-226[SEQ ID NO 1] was labeled with fluorescein and compared localization and fluorescent intensity in tumor sections with FDA approved DAKO HercepTest™. In contrast to PET experiments, normalization to injected dose is not possible with fluorescent compounds. To eliminate inter-subject variability, experiments were performed in bilateral tumor-bearing mice. […]

The subject of another assay is A431 tumors. As to the kind of experiment: Fluorescent GE-226 localization versus DAKO HercepTest, A431 tumors. The class given is in vivo, mice. To be noted: 15 mg/kg i.v., tumors excised two h post injection; HER2 negative. The procedure: as §1, §2, §3

For the molecule `C=CCNC1=C2C[C@@H](C)C[C@H](OC)[C@H](O)[C@@H](C)/C=C(\C)[C@H](OC(N)=O)[C@@H](OC)/C=C\C=C(/C)C(=O)NC(=CC1=O)C2=O` [17-allylaminogeldanamycin], in the assay with HER2 [1], the “effect on HER2” value is reported as “degrades HER2”.

As to `CCNC(=O)c1noc(-c2cc(C(C)C)c(O)cc2O)c1-c1ccc(CN2CCOCC2)cc1` [NVP-AUY922, reference compound], the “effect on tracer uptake in vivo” value in the assay with SKOV-3 xenografts (3 doses of 50 mg/kg NVP-AUY922) was “decreased tracer uptake”. Moreover, the “AUC0_60 of [18F]GE-226 after drug” value in the assay on SKOV-3 xenografts (three daily doses of 50 mg/kg NVP-AUY922, vehicle 618.4±90.1, P=0.043) is 446.7±42.8 % ID/mL*min. Besides, the “NUV60 of [18F]GE-226 after drug” value with SKOV-3 xenografts (three daily doses of 50 mg/kg NVP-AUY922 i.p., vehicle 13.5±2.1) worked out at 9.0±0.9 % ID/mL. The “effect on HER2 expression in tumors” value in the assay on HER2 [2] is “reduced HER2 expression”. In the assay on HER2 [3], the “effect on HER2 protein expression” value is given as “dose-dependent HER2 degradation; also recorded: dose-dependent decrease of HER2 protein expression”. The “effect on tracer uptake in SKOV-3 cells” value in the assay with SKOV-3 cells is “reduced tracer uptake”.

In the case of “fluorescein-GE-226: GE-226[SEQ ID NO 1] labeled with fluorescein”, the “localization of fluorescent staining versus HER2” value in the assay on NCI-N87 tumors is recorded as “co-localized with regions that are HER2 positive”; with NCI-N87 tumors (listed as fluorescently labeled tracer analogue), “co-localized with HER2 expression at the cellular level”. Besides, the “fluorescent staining” value in the assay on A431 tumors is reported as “negligible”.
